# Laboratory results as given in patent US8324248B2, “Piperidine derivatives as NK3 receptor antagonists” (Hoffmann-La Roche Inc., priority 2009, dated 2012).
# What was measured:
# [1] = target: T1, recombinant human NK3 receptor (Homo sapiens, UniProt P29371); experiment: [3H]SR142801 competition binding assay, hNK3 receptor binding; conditions: [3H]SR142801 displacement; membranes from HEK293 cells transiently expressing recombinant human NK3 receptor; Ki by Cheng-Prussoff from IC50
# T1 construct: expressed in transfected cells; host or cells: HEK293 cells (transient expression), membranes
# T1 sequence (P29371 1-465): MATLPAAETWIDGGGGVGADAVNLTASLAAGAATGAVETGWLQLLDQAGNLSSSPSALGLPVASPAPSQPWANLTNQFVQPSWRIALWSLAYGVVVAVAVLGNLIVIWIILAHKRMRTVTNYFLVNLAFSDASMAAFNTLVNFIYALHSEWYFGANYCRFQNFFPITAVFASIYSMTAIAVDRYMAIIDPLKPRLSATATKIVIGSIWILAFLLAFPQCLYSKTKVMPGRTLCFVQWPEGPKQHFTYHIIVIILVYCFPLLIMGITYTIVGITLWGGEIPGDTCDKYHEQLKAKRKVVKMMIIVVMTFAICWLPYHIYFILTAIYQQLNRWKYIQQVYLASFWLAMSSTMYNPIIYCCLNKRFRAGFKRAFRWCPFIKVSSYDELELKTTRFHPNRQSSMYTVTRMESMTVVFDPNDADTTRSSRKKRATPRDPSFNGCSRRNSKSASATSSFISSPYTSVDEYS
# Procedure: The compounds were investigated in accordance with the tests given hereinafter. [^3H]SR142801 competition binding assay hNK3 receptor binding experiment were performed using [^3H]SR142801 (Catalog No. TRK1035, specific activity: 74.0 Ci/mmol, Amersham, GE Healthcare UK limited, Buckinghamshire, UK) and membrane isolated from HEK293 cells transiently expressing recombinant human NK3 receptor. After thawing, the membrane homogenates were centrifuged at 48,000×g for 10 min at 4° C., the pellets were resuspended in the 50 mM Tris-HCl, 4 mM MnCl2, 1 μM phosphoramidon, 0.1% BSA binding buffer at pH 7.4 to a final assay concentration of 5 μg protein/well. For inhibition experiments, membranes were incubated with [^3H]SR142801 at a concentration equal to KD value of radioligand and 10 concentrations of the inhibitory compound (0.0003-10 μM) (in a total reaction volume of 500 μl) for 75 min at room temperature (RT). At the end of the incubation, membranes were filtered onto unitfilter (96-well white microplate with bonded GF/C filter preincubated 1 h in 0.3% PEI+0.3% BSA, Packard BioScience, Meriden, Conn.) with a Filtermate 196 harvester (Packard BioScience) and washed 4 times with ice-cold 50 mM Tris-HCl, pH 7.4 buffer. Nonspecific binding was measured in the presence of 10 μM SB222200 for both radioligands. The radioactivity on the filter was counted (5 min) on a Packard Top-count microplate scintillation counter with quenching correction after addition of 45 μl of microscint 40 (Can berra Packard S. A., Zürich, Switzerland) and shaking for 1 h. Inhibition curves were fitted according to the Hill equation: y=100/(1+(x/IC50)^nH), where nH=slope factor using Excel-fit 4 software (Microsoft). IC50 values were derived from the inhibition curve and the affinity constant (Ki) values were calculated using the Cheng-Prussoff equation Ki=IC50/(1+[L]/KD) where [L] is the concentration of radioligand and KD is its dissociation constant at the receptor, derived from the saturation isotherm. All experiments were performed in duplicate and the mean±standard error (SEM) of the individual Ki values was calculated.
# [2] = phase II trial, cited from earlier work
Ki [1],SMILES,"activity on positive symptoms of schizophrenia ([2]; altered behavior, delusion, hallucinations, extreme emotions, excited motor activity, incoherent speech)","activity in the treatment of negative symptoms ([2]; depression, anhedonia, social isolation or memory and attention deficits)"
3.8 nM,"C[C@H](Oc1cccc(F)c1)[C@H]1CCN(C(=O)C2CCN(c3ccc(C#N)cn3)CC2)C[C@@H]1c1ccc(Cl)cc1 [Example 56, 4-{(3S,4S)-3-(4-Chloro-phenyl)-4-[(S)-1-(3-fluoro-phenoxy)-ethyl]-piperidine-1-carbonyl}-3,4,5,6-tetrahydro-2H-[1,2′]bipyridinyl-5′-carbonitrile]",–,–
1.4 nM,"Cc1ccc(O[C@@H](C)[C@H]2CCN(C(=O)C3CCN(c4ccc(C#N)cn4)CC3)C[C@@H]2c2ccc(Cl)cc2)cc1 [Example 57, 4-[(3S,4S)-3-(4-Chloro-phenyl)-4-((S)-1-p-tolyloxy-ethyl)-piperidine-1-carbonyl]-3,4,5,6-tetrahydro-2H-[1,2′]bipyridinyl-5′-carbonitrile]",–,–
2 nM,"Cc1ccc(O[C@@H](C)[C@H]2CCN(C(=O)C3CCN(c4ccc(C#N)cn4)CC3)C[C@@H]2c2ccc(Cl)cc2)nc1 [Example 58, 4-{(3S,4S)-3-(4-Chloro-phenyl)-4-[(S)-1-(5-methyl-pyridin-2-yloxy)-ethyl]piperidine-1-carbonyl}-3,4,5,6-tetrahydro-2H-[1,2′]bipyridinyl-5′-carbonitrile]",–,–
1.5 nM,"C[C@H](Oc1ncc(F)cn1)[C@H]1CCN(C(=O)C2CCN(c3ccc(C#N)cn3)CC2)C[C@@H]1c1ccc(Cl)cc1 [Example 61, 4-{(3S,4S)-3-(4-Chloro-phenyl)-4-[(S)-1-(5-fluoro-pyrimidin-2-yloxy)-ethyl]-piperidine-1-carbonyl}-3,4,5,6-tetrahydro-2H-[1,2′]bipyridinyl-5′-carbonitrile]",–,–
0.2 nM,"C[C@H](Oc1ccc(Cl)cn1)[C@H]1CCN(C(=O)C2CCN(c3ccc(C#N)cn3)CC2)C[C@@H]1c1ccc(F)c(F)c1 [Example 62, 4-[(3S,4S)-4-[(S)-1-(5-Chloro-pyridin-2-yloxy)-ethyl]-3-(3,4-difluoro-phenyl)-piperidine-1-carbonyl]-3,4,5,6-tetrahydro-2H-[1,2′]bipyridinyl-5′-carbonitrile]",–,–
3.5 nM,"C[C@H](Oc1ccc(Cl)cn1)[C@H]1CCN(C(=O)C2CCN(C(=O)C3(C)CC3)CC2)C[C@@H]1c1ccc(F)c(F)c1 [Example 63, {4-[(3S,4S)-4-[(S)-1-(5-Chloro-pyridin-2-yloxy)-ethyl]-3-(3,4-difluoro-phenyl)-piperidine-1-carbonyl]piperidin-1-yl}-(1-methyl-cyclopropyl)-methanone]",–,–
0.4 nM,"C[C@H](Oc1ccc(C#N)cn1)[C@H]1CCN(C(=O)C2CCN(c3ccc(C#N)cn3)CC2)C[C@@H]1c1ccc(F)c(F)c1 [Example 65, 4-[(3S,4S)-4-[(S)-1-(5-Cyano-pyridin-2-yloxy)-ethyl]-3-(3,4-difluoro-phenyl)-piperidine-1-carbonyl]-3,4,5,6-tetrahydro-2H-[1,2′]bipyridinyl-5′-carbonitrile]",–,–
4.6 nM,"C[C@H](Oc1ccc(C#N)cn1)[C@H]1CCN(C(=O)C2CCN(C(=O)C3(C)CC3)CC2)C[C@@H]1c1ccc(F)c(F)c1 [Example 66, 6-((S)-1-{(3S,4S)-3-(3,4-Difluoro-phenyl)-1-[1-(1-methyl-cyclopropanecarbonyl)-piperidine-4-carbonyl]-piperidin-4-yl}-ethoxy)-nicotinonitrile]",–,–

# The remaining lines, values behind:
SMILES,Ki [1],"activity on positive symptoms of schizophrenia ([2]; altered behavior, delusion, hallucinations, extreme emotions, excited motor activity, incoherent speech)","activity in the treatment of negative symptoms ([2]; depression, anhedonia, social isolation or memory and attention deficits)"
"C[C@H](Oc1ccc(C#N)cn1)[C@H]1CCN(C(=O)C2CCN(c3ccc(C#N)cn3)CC2)C[C@@H]1c1ccc(Cl)cc1 [Example 27, 4-{(3S,4S)-3-(4-Chloro-phenyl)-4-[(S)-1-(5-cyano-pyridin-2-yloxy)-ethyl]-piperidine-1-carbonyl}-3,4,5,6-tetrahydro-2H-[1,2′]bipyridinyl-5′-carbonitrile]",0.3 nM,–,–
"C[C@H](Oc1ccc(C#N)cn1)[C@H]1CCN(C(=O)N2CCN(S(C)(=O)=O)CC2)C[C@@H]1c1ccc(Cl)cc1 [Example 28, 6-{(S)-1-[(3S,4S)-3-(4-Chloro-phenyl)-1-(4-methanesulfonyl-piperazine-1-carbonyl)-piperidin-4-yl]-ethoxy}-nicotinonitrile]",3 nM,–,–
"C[C@H](Oc1ccc(C#N)cn1)[C@H]1CCN(C(=O)c2ccc(-c3ccc(F)cc3)cc2)C[C@@H]1c1ccc(Cl)cc1 [Example 29, 6-{(8)-1-[(3S,4S)-3-(4-Chloro-phenyl)-1-(4′-fluoro-biphenyl-4-carbonyl)-piperidin-4-yl]-ethoxy}-nicotinonitrile]",7.7 nM,–,–
"N#Cc1ccc(N2CCC(C(=O)N3CC[C@H](COc4ccc(Cl)cn4)[C@@H](c4ccccc4)C3)CC2)nc1 [Example 47, 4-[(3S,4S)-4-(5-Chloro-pyridin-2-yloxymethyl)-3-phenyl-piperidine-1-carbonyl]-3,4,5,6-tetrahydro-2H-[1,2′]bipyridinyl-5′-carbonitrile]",9.9 nM,–,–
"C[C@H](Oc1ccc(Cl)c(Cl)c1)[C@H]1CCN(C(=O)C2CCN(c3ccc(C#N)cn3)CC2)C[C@@H]1c1ccc(Cl)cc1 [Example 49, 4-{(3S,4S)-3-(4-Chloro-phenyl)-4-[(S)-1-(3,4-dichloro-phenoxy)-ethyl]-piperidine-1-carbonyl}-3,4,5,6-tetrahydro-2H-[1,2′]bipyridinyl-5′-carbonitrile]",5.5 nM,–,–
"C[C@H](Oc1ccc(C(F)(F)F)cc1)[C@H]1CCN(C(=O)C2CCN(c3ccc(C#N)cn3)CC2)C[C@@H]1c1ccc(Cl)cc1 [Example 50, 4-{(3S,4S)-3-(4-Chloro-phenyl)-4-[(S)-1-(4-trifluoromethyl-phenoxy)-ethyl]-piperidine-1-carbonyl}-3,4,5,6-tetrahydro-2H-[1,2′]bipyridinyl-5′-carbonitrile]",1.3 nM,–,–
"C[C@H](Oc1ccc(C#N)cc1)[C@H]1CCN(C(=O)C2CCN(c3ccc(C#N)cn3)CC2)C[C@@H]1c1ccc(Cl)cc1 [Example 51, 4-{(3S,4S)-3-(4-Chloro-phenyl)-4-[(S)-1-(4-cyano-phenoxy)-ethyl]-piperidine-1-carbonyl}-3,4,5,6-tetrahydro-2H-[1,2′]bipyridinyl-5′-carbonitrile]",1.9 nM,–,–
"C[C@H](Oc1ccc(F)cn1)[C@H]1CCN(C(=O)C2CCN(c3ccc(C#N)cn3)CC2)C[C@@H]1c1ccc(Cl)cc1 [Example 52, 4-{(3S,4S)-3-(4-Chloro-phenyl)-4-[(S)-1-(5-fluoro-pyridin-2-yloxy)-ethyl]-piperidine-1-carbonyl}-3,4,5,6-tetrahydro-2H-[1,2′]bipyridinyl-5′-carbonitrile]",0.6 nM,–,–
"C[C@H](Oc1ccc(F)cc1)[C@H]1CCN(C(=O)C2CCN(c3ccc(C#N)cn3)CC2)C[C@@H]1c1ccc(Cl)cc1 [Example 53, 4-{(3S,4S)-3-(4-Chloro-phenyl)-4-[(S)-1-(4-fluoro-phenoxy)-ethyl]-piperidine-1-carbonyl}-3,4,5,6-tetrahydro-2H-[1,2′]bipyridinyl-5′-carbonitrile]",0.6 nM,–,–
"C[C@H](Oc1ccc(F)c(F)c1)[C@H]1CCN(C(=O)C2CCN(c3ccc(C#N)cn3)CC2)C[C@@H]1c1ccc(Cl)cc1 [Example 54, 4-{(3S,4S)-3-(4-Chloro-phenyl)-4-[(S)-1-(3,4-difluoro-phenoxy)-ethyl]-piperidine-1-carbonyl}-3,4,5,6-tetrahydro-2H-[1,2′]bipyridinyl-5′-carbonitrile]",1.7 nM,–,–
"C[C@H](Oc1ccc(Cl)cc1)[C@H]1CCN(C(=O)C2CCN(c3ccc(C#N)cn3)CC2)C[C@@H]1c1ccc(Cl)cc1 [Example 55, 4-[(3S,4S)-4-[(S)-1-(4-Chloro-phenoxy)-ethyl]-3-(4-chloro-phenyl)-piperidine-1-carbonyl]-3,4,5,6-tetrahydro-2H-[1,2′]bipyridinyl-5′-carbonitrile]",0.9 nM,–,–
"CC(=O)N(C)C1(c2ccccc2)CCN(CCC[C@]2(c3ccc(Cl)c(Cl)c3)CCCN(C(=O)c3ccccc3)C2)CC1 [SR 142,801, Osanetant]",–,active,inactive
